Measurements: ChEMBL document CHEMBL1201862, “PubChem BioAssay data set” (2004)
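Growth conditions: 96-well plates. Treatment: test compound, 48 hours, 5 concentrations. Analysis: linear interpolation between bracketing concentrations; unreached endpoints set to highest concentration. GI50 = concentration required for 50% inhibition of growth.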 Active and inactive are the calls of the source. Cut-off read from the data, not from the text of the source: active = GI50 up to about 1.1 µM and inactive = higher.

Key:
Test in all cases: NCI-60 cell line screen, 48 h
[1] = test system: 786-0
[2] = test system: NCI/ADR-RES
[3] = test system: NCI-H522
[4] = test system: SK-MEL-28
[5] = test system: MDA-MB-231
[6] = test system: SR
[7] = test system: MOLT-4
[8] = test system: LOX IMVI
[9] = test system: MDA-MB-435
[10] = test system: U-251
[11] = test system: A498
[12] = test system: HCT-116
[13] = test system: HT-29
[14] = test system: NCI-H460
[15] = test system: HOP-92
[16] = test system: M14
[17] = test system: ACHN
[18] = test system: SF-268
[19] = test system: KM12
[20] = test system: K562

Measured: GI50

NNC(=O)CSc1nnc(CCCCCCCCc2nnc(SCC(=O)NN)o2)o1
inactive: [1] > 100 µM | [2] > 100 µM | [3] > 100 µM | [4] > 100 µM | [5] > 100 µM | [6] > 100 µM | [7] > 100 µM | [8] > 100 µM | [9] > 100 µM | [10] > 100 µM | [11] > 100 µM | [12] > 100 µM | [13] > 100 µM | [14] > 100 µM | [15] > 100 µM | [16] > 100 µM | [17] > 100 µM | [18] > 100 µM | [19] > 100 µM | [20] > 100 µM

O=C1NC(=N/c2ccccc2)/C(=N\c2ccccc2)N1c1ccccc1
inactive: [1] 15.5 µM | [2] 15.5 µM | [3] 1.7 µM | [4] 14.8 µM | [5] 20.8 µM | [6] 20 µM | [7] 25.9 µM | [8] 16.3 µM | [9] 14.2 µM | [10] 15.6 µM | [11] 17.2 µM | [12] 17.7 µM | [13] 16 µM | [14] 16.5 µM | [15] 16.3 µM | [17] 16.9 µM | [18] 17.9 µM | [19] 15.6 µM | [20] 26.5 µM

CC1CC(C)(C)CC(OCCN2CCCCC2)(c2ccccc2)C1 (configuration not stated)
inactive: [1] 10.1 µM | [2] 14.4 µM | [3] 5.87 µM | [4] 15.7 µM | [5] 11.4 µM | [6] 4.97 µM | [8] 7.13 µM | [9] 11.9 µM | [10] 11.6 µM | [11] 12.8 µM | [12] 4.4 µM | [13] 1.89 µM | [14] 4.21 µM | [15] 8.17 µM | [16] 3.21 µM | [17] 15.9 µM | [18] 10.8 µM | [19] 7.35 µM | [20] 13 µM

O=C(Nc1ccccc1C(=O)NCc1ccccc1)/C(=C/c1ccccc1)NC(=O)c1ccccc1
inactive: [1] 47.6 µM | [2] 62.2 µM | [3] > 100 µM | [4] > 100 µM | [5] > 100 µM | [6] > 100 µM | [7] 80.7 µM | [8] > 100 µM | [9] > 100 µM | [10] > 100 µM | [11] > 100 µM | [12] > 100 µM | [13] > 100 µM | [15] > 100 µM | [16] > 100 µM | [17] > 100 µM | [18] > 100 µM | [19] > 100 µM | [20] > 100 µM
